# Laboratory results from US20020061888A1, “Combination therapy for the prophylaxis and treatment of hyperlipidemic conditions and disorders” (priority 2000, published 2002).
# Values joined by “and” are separate entries in the source; they are usually repeats but may differ in a detail not shown here. Equal values may be shown once. Marks after values point to notes of the source that are not given here.
# Experiments:
# Male beagle dogs [1] = test: Serum total cholesterol in beagle dogs (serum lipid measurements); assay type: in vivo; settings: for TOTAL SERUM CHOLESTEROL / SERUM TOTAL CHOLESTEROL: n = 6; for decrease in serum total cholesterol concentration: compared to vehicle
# Procedure: (§1) Male beagle dogs (9-10 kg) obtained from Marshall farms were fed a normal chow diet once a day for a two hour interval and given water ad libitum. Prior to initiating treatment, the dogs were weighed and blood samples were drawn from the cephalic vein of each dog following an overnight fast to evaluate pretreatment serum total cholesterol levels at the start of the study. […] All doses were administered in gelatin capsules per os to each dog between 9:00-9:30 a.m. prior to feeding. All animals were fed between 9:30-10:00 a.m. and were allowed two hours to eat, at which time any remaining food was removed. […] Animals were dosed daily for three weeks and blood samples were taken at the end of each week after an overnight fast for comparison with pretreatment serum total cholesterol levels. Three consecutive 24 hour fecal samples were collected for each group during the last 72 hours of each week and used to measure the concentration of fecal biles acids excreted during that time period.
# Blood was collected from the cephalic vein of each dog into serum separator tubes. The blood was centrifuged at 900×g for 20 minutes at room temperature and the serum decanted. All analyses were performed on a Cobas Mira Clinical Analyzer System (Roche Diagnostic Systems, Branchburg, N.J.) using Roche Diagnostic reagents for enzymatic determinations of serum cholesterol. Commercial calibrator and quality control materials were analyzed with each run to verify assay accuracy and precision. A two-tailed, paired Students t-test was used to determine the statistical significance of changes in serum total cholesterol in treated dogs compared to pretreatment values. A one-way analysis of variance (“ANOVA”) was used to compare each pair of treatment groups to determine the statistical significance of changes in serum total cholesterol.
# Beagle dogs also were administered pravastatin to evaluate the monotherapeutic effect of pravastatin on serum total cholesterol.
# Male beagle dogs (9-10 kg) obtained from Marshall farms were fed once a day for two hours and given water ad libitum. Prior to initiating treatment, blood samples were drawn from the cephalic vein of each dog to evaluate pretreatment total serum cholesterol levels at the start of the study.
# For the dose ranging study, the dogs were assigned to one of five groups based on mean body weights and serum total cholesterol levels. Each group received one of the following dosages: (1) vehicle (empty capsule, afternoon dosing), (2) 3.0 mg/kg/day pravastatin (afternoon dosing), (3) 10 mg/kg/day pravastatin (afternoon dosing), (4) 30 mg/kg/day pravastatin (afternoon dosing), and (5) 10 mg/kg/day pravastatin (morning dosing). One capsule containing pravastatin was administered per os to each dog between 9:00-9:30 a.m. prior to feeding for the 10 mg/kg/day morning dosing group and between 2:30-3:00 p.m. for the afternoon dosing groups. All animals were fed between 9:30-10:00 a.m. and were allowed two hours to eat, at which time any remaining food was removed. […] Animals were dosed daily for four weeks and blood samples were taken at the end of each week after an overnight fast for comparison with pretreatment serum total cholesterol levels.
# (§2) Following this initial four week dose-ranging study, dogs from the two groups receiving 10 mg/kg/day pravastatin (a.m. and p.m. dosing groups) were randomized into two new treatment groups based on serum total cholesterol levels to initiate the combination treatment study. […] Dosing continued in this manner for an additional four weeks (Weeks 5-8) with blood and 48-hour fecal samples collected at the end of each week for serum lipid measurements and fecal bile acid determinations, respectively.
# Male beagle dogs [2] = test: Body or fecal weights, stool consistency, general animal health of treated beagle dogs; assay type: in vivo; settings: Example 3 study (pravastatin 3-30 mg/kg/day, compound A-5 4.0 mg/kg/day, combination), any of the groups
# Procedure: as §1
# as §2, with “respectively. […] At the end of this three-week period, pravastatin dosing and all empty capsule dosing were discontinued and blood samples were collected weekly for a final three weeks (weeks 12-14) to monitor the return of serum total cholesterol levels back to baseline.” for “respectively.”
# Male beagle dogs (9-10 kg) obtained from Marshall farms were fed once a day for two hours and given water ad libitum.
smiles,measurement,setting,value
"CC[C@H](C)C(=O)O[C@H]1C[C@H](O)C=C2C=C[C@H](C)[C@H](CC[C@@H](O)C[C@@H](O)CC(=O)O)[C@H]21 [pravastatin, Pravastatin]",TOTAL SERUM CHOLESTEROL,"Male beagle dogs [1]; pravastatin 10.0 mg/kg/day pm dosing, Week 3, mean ± SEM",128 ± 9^3 mg/dL
same,% change in serum total cholesterol compared to the pretreatment value of each group,"Male beagle dogs [1]; pravastatin 10.0 mg/kg/day pm dosing, Week 4",(−21) %
same,TOTAL SERUM CHOLESTEROL,"Male beagle dogs [1]; pravastatin 10.0 mg/kg/day pm dosing, Week 4, mean ± SEM",126 ±8 mg/dL and 126 ± 8^3 mg/dL
same,% change in serum total cholesterol compared to the pretreatment value of each group,"Male beagle dogs [1]; pravastatin 16.0 mg/kg/day, Week 1",(−8) %
same,SERUM TOTAL CHOLESTEROL,"Male beagle dogs [1]; pravastatin 16.0 mg/kg/day, Week 1, mean ± SEM",142 ± 8 mg/dL
same,% change in serum total cholesterol compared to the pretreatment value of each group,"Male beagle dogs [1]; pravastatin 16.0 mg/kg/day, Week 2",(−12) %
same,SERUM TOTAL CHOLESTEROL,"Male beagle dogs [1]; pravastatin 16.0 mg/kg/day, Week 2, mean ± SEM",137 ± 12^2 mg/dL
same,% change in serum total cholesterol compared to the pretreatment value of each group,"Male beagle dogs [1]; pravastatin 16.0 mg/kg/day, Week 3",(−14) %
same,decrease in serum total cholesterol concentration,"Male beagle dogs [1]; pravastatin 16.0 mg/kg/day, one week of treatment",8%
same,decrease in serum total cholesterol concentration,"Male beagle dogs [1]; pravastatin 16.0 mg/kg/day, three weeks of treatment",14%
same,% change in serum total cholesterol compared to the pretreatment value of each group,"Male beagle dogs [1]; pravastatin 30.0 mg/kg/day pm dosing, Week 1",(+2) %
same,TOTAL SERUM CHOLESTEROL,"Male beagle dogs [1]; pravastatin 30.0 mg/kg/day pm dosing, Week 1, mean ± SEM",164 ± 10 mg/dL
same,% change in serum total cholesterol compared to the pretreatment value of each group,"Male beagle dogs [1]; pravastatin 30.0 mg/kg/day pm dosing, Week 2",(−18) %
same,TOTAL SERUM CHOLESTEROL,"Male beagle dogs [1]; pravastatin 30.0 mg/kg/day pm dosing, Week 2, mean ± SEM",132 ± 8^3 mg/dL
same,% change in serum total cholesterol compared to the pretreatment value of each group,"Male beagle dogs [1]; pravastatin 30.0 mg/kg/day pm dosing, Week 3",(−18) %
same,TOTAL SERUM CHOLESTEROL,"Male beagle dogs [1]; pravastatin 30.0 mg/kg/day pm dosing, Week 3, mean ± SEM",132 ± 11^3 mg/dL
same,% change in serum total cholesterol compared to the pretreatment value of each group,"Male beagle dogs [1]; pravastatin 30.0 mg/kg/day pm dosing, Week 4",(−20) %
same,TOTAL SERUM CHOLESTEROL,"Male beagle dogs [1]; pravastatin 30.0 mg/kg/day pm dosing, Week 4, mean ± SEM",128 ± 7^3 mg/dL
same,lowering of serum total cholesterol,"Male beagle dogs [1]; pravastatin 30 mg/kg/day, four week dose ranging study",20%
same,total decrease in serum total cholesterol compared to the pretreatment value,"Male beagle dogs [1]; pravastatin monotherapy 10 mg/kg/day, Week 8",30%
same,% change from Week 0 in total serum cholesterol,"Male beagle dogs [1]; pravastatin monotherapy 10 mg/kg/day, dosed Weeks 1-11, Week 1",(−2) %
same,TOTAL SERUM CHOLESTEROL,"Male beagle dogs [1]; pravastatin monotherapy 10 mg/kg/day, dosed Weeks 1-11, Week 1, mean ± SEM",157 ± 10 mg/dL
same,% change from Week 0 in total serum cholesterol,"Male beagle dogs [1]; pravastatin monotherapy 10 mg/kg/day, dosed Weeks 1-11, Week 2",(−16) %
same,TOTAL SERUM CHOLESTEROL,"Male beagle dogs [1]; pravastatin monotherapy 10 mg/kg/day, dosed Weeks 1-11, Week 2, mean ± SEM",135 ± 17 mg/dL
same,% change from Week 0 in total serum cholesterol,"Male beagle dogs [1]; pravastatin monotherapy 10 mg/kg/day, dosed Weeks 1-11, Week 3",(−18) %
same,TOTAL SERUM CHOLESTEROL,"Male beagle dogs [1]; pravastatin monotherapy 10 mg/kg/day, dosed Weeks 1-11, Week 3, mean ± SEM",132 ± 13 mg/dL
same,% change from Week 0 in total serum cholesterol,"Male beagle dogs [1]; pravastatin monotherapy 10 mg/kg/day, dosed Weeks 1-11, Week 4",(−19) %
same,TOTAL SERUM CHOLESTEROL,"Male beagle dogs [1]; pravastatin monotherapy 10 mg/kg/day, dosed Weeks 1-11, Week 4, mean ± SEM",130 ± 9 [a] mg/dL
same,% change from Week 0 in total serum cholesterol,"Male beagle dogs [1]; pravastatin monotherapy 10 mg/kg/day, dosed Weeks 1-11, Week 5",(−21) %
same,TOTAL SERUM CHOLESTEROL,"Male beagle dogs [1]; pravastatin monotherapy 10 mg/kg/day, dosed Weeks 1-11, Week 5, mean ± SEM",127 ± 9 [a] mg/dL
same,% change from Week 0 in total serum cholesterol,"Male beagle dogs [1]; pravastatin monotherapy 10 mg/kg/day, dosed Weeks 1-11, Week 6",(−27) %
same,TOTAL SERUM CHOLESTEROL,"Male beagle dogs [1]; pravastatin monotherapy 10 mg/kg/day, dosed Weeks 1-11, Week 6, mean ± SEM",117 ± 10 [a] mg/dL
same,% change from Week 0 in total serum cholesterol,"Male beagle dogs [1]; pravastatin monotherapy 10 mg/kg/day, dosed Weeks 1-11, Week 7",(−25) %
same,TOTAL SERUM CHOLESTEROL,"Male beagle dogs [1]; pravastatin monotherapy 10 mg/kg/day, dosed Weeks 1-11, Week 7, mean ± SEM",121 ± 7 [a] mg/dL
same,% change from Week 0 in total serum cholesterol,"Male beagle dogs [1]; pravastatin monotherapy 10 mg/kg/day, dosed Weeks 1-11, Week 8",(−30) %
same,TOTAL SERUM CHOLESTEROL,"Male beagle dogs [1]; pravastatin monotherapy 10 mg/kg/day, dosed Weeks 1-11, Week 8, mean ± SEM",113 ±9 mg/dL and 113 ± 9 [a] mg/dL
same,% change from Week 0 in total serum cholesterol,"Male beagle dogs [1]; pravastatin monotherapy 10 mg/kg/day, dosed Weeks 1-11, Week 9",(−26) %
same,TOTAL SERUM CHOLESTEROL,"Male beagle dogs [1]; pravastatin monotherapy 10 mg/kg/day, dosed Weeks 1-11, Week 9, mean ± SEM",119 ± 8 [a] mg/dL
same,% change from Week 0 in total serum cholesterol,"Male beagle dogs [1]; pravastatin monotherapy 10 mg/kg/day, dosed Weeks 1-11, Week 10",(−27) %
same,TOTAL SERUM CHOLESTEROL,"Male beagle dogs [1]; pravastatin monotherapy 10 mg/kg/day, dosed Weeks 1-11, Week 10, mean ± SEM",118 ± 9 [a] mg/dL
same,% change from Week 0 in total serum cholesterol,"Male beagle dogs [1]; pravastatin monotherapy 10 mg/kg/day, dosed Weeks 1-11, Week 11",(−27) %
same,TOTAL SERUM CHOLESTEROL,"Male beagle dogs [1]; pravastatin monotherapy 10 mg/kg/day, dosed Weeks 1-11, Week 11, mean ± SEM",118 ± 8 [a] mg/dL
same,% change from Week 0 in total serum cholesterol,"Male beagle dogs [1]; pravastatin monotherapy group, dosing terminated after Week 11, Week 12",(−19) %
same,TOTAL SERUM CHOLESTEROL,"Male beagle dogs [1]; pravastatin monotherapy group, dosing terminated after Week 11, Week 12, mean ± SEM",131 ± 9 [a] mg/dL
same,% change from Week 0 in total serum cholesterol,"Male beagle dogs [1]; pravastatin monotherapy group, dosing terminated after Week 11, Week 13",(−9) %
same,TOTAL SERUM CHOLESTEROL,"Male beagle dogs [1]; pravastatin monotherapy group, dosing terminated after Week 11, Week 13, mean ± SEM",147 ± 9 mg/dL
same,% change from Week 0 in total serum cholesterol,"Male beagle dogs [1]; pravastatin monotherapy group, dosing terminated after Week 11, Week 14",(−11) %
same,TOTAL SERUM CHOLESTEROL,"Male beagle dogs [1]; pravastatin monotherapy group, dosing terminated after Week 11, Week 14, mean ± SEM",144 ± 12 mg/dL
same,"changes in body or fecal weights, stool consistency or general animal health",Male beagle dogs [2],no significant changes
